Assay [1] has as its target T1, Farnesyl pyrophosphate synthase (Homo sapiens, UniProt P14324).
T1 sequence (P14324 whole entry): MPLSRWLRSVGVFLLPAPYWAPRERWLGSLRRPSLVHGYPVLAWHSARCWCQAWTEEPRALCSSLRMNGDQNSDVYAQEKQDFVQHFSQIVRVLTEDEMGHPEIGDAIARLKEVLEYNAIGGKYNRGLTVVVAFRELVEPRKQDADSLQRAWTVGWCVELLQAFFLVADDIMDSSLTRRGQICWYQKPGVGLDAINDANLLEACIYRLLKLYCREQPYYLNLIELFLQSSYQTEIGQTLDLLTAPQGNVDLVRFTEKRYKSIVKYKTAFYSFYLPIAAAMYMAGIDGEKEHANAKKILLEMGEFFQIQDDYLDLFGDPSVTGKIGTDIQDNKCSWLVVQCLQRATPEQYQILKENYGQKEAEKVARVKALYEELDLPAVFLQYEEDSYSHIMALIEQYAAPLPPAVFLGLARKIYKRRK
The assay is described as follows: Inhibition of human recombinant N-terminal His6-tagged FPPS transfected in Escherichia coli BL21 (DE3) cells using GPP and [3H]-IPP as substrate incubated for 10 mins prior to substrate addition measured after 20 mins by liquid scintillation counting analysis.

Assay [2] addresses T2, Farnesyl pyrophosphate synthase (Homo sapiens) (UniProt P14324).
T2 sequence (whole entry): T1 sequence (P14324 whole entry)
The assay is described as follows: Inhibition of human recombinant N-terminal His6-tagged FPPS transfected in Escherichia coli BL21 (DE3) cells using GPP and [3H]-IPP as substrate at 10 uM incubated for 10 mins prior to substrate addition measured after 20 mins by liquid scintillation counting analysis. The format is biochemical.

Assay [3] has as its target T1, Farnesyl pyrophosphate synthase. Put plainly: Inhibition of human FPPS.

Each structure is given as a SMILES string.

As to `Cc1ccc(-c2cc3c(NC(P(=O)(O)O)P(=O)(O)O)ncnc3s2)cc1`, the concentration for half-maximal inhibition (IC50) in assay [1] came to 390 nM.

For the compound `O=P(O)(O)C(Nc1ncnc2scc(-c3ccccc3)c12)P(=O)(O)O`, in assay [2], the inhibition is under 20%.

For `O=P(O)(O)C(Nc1ncnc2sccc12)P(=O)(O)O`, the inhibition in assay [2] is 75%.

`O=P(O)(O)C(Nc1nc(-c2ccccc2)nc2sccc12)P(=O)(O)O`: the inhibition in assay [2] turned out to be 75%.

In assay [3], `CC(C)=CCC/C(C)=C/CC(C/C=C(\C)CCC=C(C)C)(P(=O)(O)O)P(=O)(O)O` [DIGERANYL BISPHOSPHONATE] displayed an IC50 of over 10000 nM.

For `O=P(O)(O)C(Nc1ncnc2sc(-c3ccccc3)cc12)P(=O)(O)O`, the inhibition in assay [2] is 75%.

Regarding `O=P(O)(O)C(Nc1ncnc2sc(-c3ccc4ccccc4c3)cc12)P(=O)(O)O`, in assay [1], the half-maximal inhibitory concentration (IC50) worked out at 250 nM.

(Values after ChEMBL document CHEMBL2346614, “Discovery of thienopyrimidine-based inhibitors of the human farnesyl pyrophosphate synthase--parallel synthesis of analogs via a trimethylsilyl ylidene intermediate” (Bioorg Med Chem, 2013).)
